Test results: publication PMC3242598, “Phase I study of BIBF 1120 with docetaxel and prednisone in metastatic chemo-naive hormone-refractory prostate cancer patients” (British Journal of Cancer, 2011)
Entries after “also recorded” stand apart in the source; their conditions may differ. Like-named read-outs stand apart in the source and are kept apart here.

Key:
[1] = system: patients with metastatic, chemo-naive, hormone-refractory prostate cancer (HRPC); assay: Dose escalation: dose-limiting toxicities and maximum tolerated dose; assay type: in vivo
Description: On days 2–21 (21-day cycle), patients took an oral dose of BIBF 1120 twice daily. Patients were instructed to swallow BIBF 1120 with water at the same time every day to ensure a dose interval of ∼12 h. On day 2 of treatment cycles (TCs) 1 and 2, patients only took the morning dose of BIBF 1120, omitting the evening dose to allow PK evaluation. All patients were premedicated with oral corticosteroids (dexamethasone 8 mg per os or methylprednisolone 32 mg per os, at 12 h and 1 h before docetaxel infusion) and subsequently took 5 mg prednisone oral BID throughout the trial. On day 1 of each TC, patients received an IV infusion of 75 mg m^−2 docetaxel administered over 1 h.
Based on prior clinical experience, the starting dose of BIBF 1120 in TC 1 was 100 mg BID; doses were escalated in 50 mg increments until the occurrence of a dose-limiting toxicity (DLT). Recognised DLTs included the occurrence of non-haematological related toxicity grade ⩾3 with the exception of alopecia, nail modifications, acute nausea or vomiting and isolated γ-glutamyl transpeptidase elevations. Alternatively, the occurrence of uncomplicated grade 4 neutropenia for >7 days, neutropenia grade ⩾3 associated with fever ⩾38.5 °C, or grade 4 thrombopenia or grade 3 thrombopenia associated with bleeding in […], was defined as a DLT. […]

[2] = Plasma pharmacokinetics of BIBF 1120 (HPLC-MS/MS); assay type: in vivo, human; details: for Cmax / AUC(0-t) / half-life / Tmax: human, plasma, po, 250 mg; for Cmax: read-out: Cmax, gMean (gCV%); for AUC(0-t): read-out: AUC0−24, gMean (gCV%); for half-life: read-out: t1/2, gMean (gCV%) (converted); for Tmax: read-out: tmax, median and range
Description: Plasma concentrations of BIBF 1120 and docetaxel were analysed by a validated method using high-performance liquid chromatography coupled with tandem mass spectrometry (HPLC-MS/MS) in the Department of Drug Metabolism and Pharmacokinetics (Boehringer Ingelheim Pharma GmbH & Co KG, Biberach, Germany). The assay comprises sample clean-up by automated solid-phase extraction in a 96-well plate format. Chromatography was achieved on an analytical C18 reversed phase HPLC column with gradient elution. The substance was detected and quantified by HPLC-MS/MS using electrospray ionisation in the positive ion mode. Docetaxel was analysed by HPLC-MS/MS using paclitaxel as an internal standard. The assay comprises sample clean-up by liquid–liquid extraction and chromatography on an analytical C18 reversed phase HPLC column with isocratic elution. […] For docetaxel, the lower limit was 2.5 ng ml^−1 plasma, using a plasma volume of 100 μl. The calculated parameters were plasmatic peak concentrations following the first dose (Cmax), half-life time (t1/2), area under the plasma concentration–time curve (AUCt), apparent clearance after oral administration, and apparent volume of distribution during the terminal phase.

[3] = design: method as in Mross et al, 2010; details: monotherapy phase I; ref Mross et al, 2010; cited from earlier work
VEGFR = system: VEGFR; design: method as in Hilberg et al, 2008; details: after a 1-h exposure; ref Hilberg et al, 2008; cited from earlier work
[4] = system: advanced lung cancer patients; design: method as in Reck et al, 2011; details: phase II, ref Reck et al, 2011, cited from earlier work
[5] = system: metastatic hormone-refractory prostate cancer (HRPC); assay: Evaluation of response (PSA decline, RECIST); assay type: in vivo, human
Description: All patients who received at least one dose of BIBF 1120 or docetaxel were assessed during the safety analysis. Intensity of AEs was graded according to Common Terminology Criteria for Adverse Events (CTCAE) version 3.0. Objective response was defined as a PSA decline ⩾50% from the baseline value over two consecutive courses and/or tumour response according to RECIST criteria ([Therasse et al, 2000]).

[6] = system: human prostate cancer xenografts; design: method as in Hilberg et al, 2008; details: human prostate cancer xenografts in athymic mice; ref Hilberg et al, 2008; cited from earlier work
[7] = oral 250 mg BID, day 2 of treatment cycle 2, with docetaxel
[8] = male, oral 250 mg BID, day 2 of treatment cycle 1
[9] = male, oral 250 mg BID, treatment cycle 2

COC(=O)c1ccc2c(c1)NC(=O)/C2=C(\Nc1ccc(N(C)C(=O)CN2CCN(C)CC2)cc1)c1ccccc1 [BIBF 1120]
Maximum tolerated dose (MTD) ([1]; continuous daily oral BIBF 1120 + docetaxel 75 mg m^−2 every 3 weeks + prednisone 5 mg BID): 250 mg BID | DLTs at dose levels <250 mg BID ([1]; in vivo): no patients experienced DLTs | Exposure with increasing doses ([2]; 100–250 mg BID): dose-dependent increase in exposure | Time to reach steady state ([2]; BIBF 1120 BID dosing): 7 days | PK interaction between BIBF 1120 and docetaxel/prednisone ([2]; combination therapy): no interactions; also recorded: no hint for PK interaction; also recorded: no indication of PK interaction | Cmax [2, 7]: 45.9 ng/mL | AUC(0-t) [2, 8]: 454 ng·h/mL | half-life [2, 8]: 7.03 h | Cmax ([2]; male, oral 250 mg BID, day 2 of treatment cycle 1, with docetaxel): 65 ng/mL | half-life ([2]; male, oral 250 mg BID, day 2 of treatment cycle 2): 15.4 h | Tmax ([2]; male, oral 250 mg BID, treatment cycle 1): 3 h | AUC(0-t) [2, 9]: 410 ng·h/mL | Tmax [2, 9]: 2.08 h | Cmax, gMean (gCV%) [2, 7]: 45.8 (98.5) ng ml^−1 | t1/2 [3]: ~15 h | Duration of block of VEGFR activation (VEGFR): > 32 h | Frequency of CTCAE grade 3/4 liver enzyme elevations ([4]; 250 mg BID monotherapy): ~20% | Frequency of CTCAE grade 3/4 liver enzyme elevations ([4]; 150-mg BID monotherapy): none | Estimated progression-free survival rate at 24 weeks ([5]; 250 mg BID + docetaxel/prednisone): 56% | Patients with ⩾50% reduction in PSA levels from baseline (PSA response) ([5]; 19 assessable patients, BIBF 1120 + docetaxel/prednisone): 68.4% | Patients with disease response (PSA and/or RECIST) ([5]; 19 evaluable patients, BIBF 1120 100–250 mg BID + docetaxel/prednisone): 73.7% | Patients with complete biological response with normalisation of PSA ([5]; BIBF 1120 + docetaxel/prednisone): 33.3% | Antitumour activity in vivo [6]: potent antitumour activity
